Assay results from patent US6534077B2, “Organosiloxane containing modified groups in agricultural compositions” (Crompton Corporation, priority 2000, dated 2003).

Tested on: Barnyardgrass (Echinochloa crus-galli)
Test: Effect of adjuvant on glyphosate-IPA efficacy on barnyardgrass with simulated rainfall
Type: in vivo
Conditions: 0.75 wt % glyphosate-IPA without adjuvant, rainfall 2 h after application
Procedure: Barnyardgrass (Echinochloa crus-galli) 10 cm in height were treated with 0.75 wt % (a.i.) glyphosate, isopropylamine salt (Monsanto), either alone, or plus a spray adjuvant (0.05 and 0.1 wt % respectively). The spray was applied at 100 L/ha using a T-Jet 8002E nozzle. The plants were subjected to simulated rainfall (2.5 cm), 2 h after herbicide application, to determine the rainfastening ability of the adjuvants. Plants were evaluated at week 1 and 2 weeks after treatment, by visual observation, relative to the untreated check. A score of 0 means no plant injury, while a score of 100 indicates total control (burndown, with no regrowth).

## CC(C)N.O=C(O)CNCP(=O)(O)O [glyphosate-IPA, glyphosate, isopropylamine salt]
1 week after treatment
  Percent Control 1 WAT: 7.5d %
2 weeks after treatment
  Percent Control 2 WAT: 18.75c %
